According to patent US6060451A, “Thrombin inhibitors based on the amino acid sequence of hirudin” (The National Research Council of Canada, priority 1995, dated 2000):
“And” between values parts separate entries of the source, which are not always exact repeats. Equal entries are not always repeated. Blank lines part the entries; values can stand above or below the substance they belong to. Non-standard residues stand in square brackets, D forms with d.

Experiments:
[1] = test system: carotid artery thrombosis; assay: Ferric chloride injury-induced thrombosis model in carotid artery; conditions: rat carotid artery, FeCl3 injury; for Dose to double patency time: control patency time 19 ± 1 min
Experimental: Species: Rat, male, Sprague-Dawley.
Animals were laid on a heating pad which was maintained at 37° C. The carotid artery was approached through a midline cervical incision. Carefully blunt dissection was used to expose and isolate the vessel from the carotid sheath. […] The vessel temperature was monitored for 60 minutes after application of FeCl3. […] The site of the experiment was covered with aluminum foil in order to protect the FeCl3 from degradation by light.
All the samples were kept on ice and centrifuged as soon as possible at 2000 Rpm for 10 min., 4° C. The plasma was analyzed in duplicate for activated partial thromboplastin time on a haemostasis analyzer (STAGO ST4™).
From a group of four animals, two arteries were stored at -80° C. for further analysis. The others were observed under a light microscope at 40× (Leica™) for quantification of the occlusion (complete, partial, no occlusion).
In some studies, the animal was receiving the compound by i.v. infusion instead of a bolus. In this case, the jugulars and femoral veins were cannulated with Sylastic tubing (I.D. 0.025IN). This left jugular was used for blood sampling and the right one for the infusion line. The compound was infused 30 minutes before injury and then for an other 30 minutes post-injury. Blood samples were taken at time 0, 30 and 60 minutes for APTT test and thrombin test (1 ml of blood/90 ul of citrated buffer).

[2] = test system: activated partial thromboplastin time; assay: Increase in APTT, bolus plus infusion model; format: in vivo, rat; set-up: Infusion Dose needed to cause 2-4 fold increase in APTT: unit not given here; conditions: intravenous bolus followed by infusion
[3] = test system: venous thrombosis in vena cava; assay: Venous thrombosis model (balloon catheter induced-injury and stasis in vena cava); format: in vivo, rat; conditions: rats; for Minimum Bolus dose needed to achieve patency: i.v. bolus
Experimental: Rats ranging in weight from 350 g-450 g were anaesthetized with urethane [50%] at 1500 mg/kg IP. The abdomen and neck were shaved and prepared for surgery.
An incision was made from the base of the sternum to approximately 10-20 mm up from the penile sheath. Another incision was made across the end of the incision (90 degree) to create a flap to be hemostat open. […] Two sutures were loosely looped around the vein(1) and the vein and artery(2), just posterior to the renal veins and arteries. All other branches coming off dorsally from the vena cava were ligated as well as any other veins which may branch of this vein (approximately 4-6 depending on rat). Two more sutures were looped around the vein(1) and artery and vein(2) at the bifurcation of the femoral vein and artery. The right jugular vein was isolated, for later injection of compound.
An incision in the upper interior leg was made and the femoral vein and artery were exposed. The femoral vein was isolated and two sutures were looped around it. One suture was ligated distally, and the other one was pulled tight (proximal) to stop blood flow through the vessel. A very small incision was made into the vein and a 2F fogarty catheter was inserted. The catheter was fed up the femoral vein to the upper sutures (near the renal veins). At this point, inject the compound via the isolated right jugular vein and wait 1 minute. At 1 minute inflate the fogarty catheter with enough saline to distend the vena cava, but still allowing the catheter to be pulled back down to the point of femoral bifurcation without bursting the vessel. This procedure was repeated 3 times. After the third passage, the catheter was removed and as quickly as possible, the femoral incision was ligated with the proximal suture and the suture which was looped around only the vena cava was ligated to stop return flow and allow thrombus growth and the timer was set for 30 minutes.
At this point, the intestines may be placed back in the body cavity, and moistened with saline if any drying has occurred, and skin kept closed with hemostat. […]

human plasma clotting = assay: Human plasma clotting time; format: biochemical; conditions: read-out: IC50 plasma clotting time (concentration required to inhibit human plasma clotting time by 50%)
Experimental: Thus, for the determination of prothrombin time, 50 μl of reconstituted citrated normal human plasma (Sigma, St-Louis, Mo.) is mixed with 50 μl of thromboplastin solution at 37° C. in a 400 μl cuvette. […] The clotting time is recorded following recalcification with 100 μl of 25 mM CaCl2. The clotting time in the absence of inhibitor was between 19-22 sec.
The same procedure is adopted for the determination of activated partial thromboplastin time except that reconstituted plasma is activated for 3 minutes with cephalin (Sigma, St-Louis, Mo.).
**Concentration of compound required to inhibit human plasma clotting tim

thrombin [4] = molecular target: T1, thrombin (Homo sapiens, UniProt P00734); assay: Thrombin time in buffer containing fibrinogen (dTT); format: biochemical; conditions: read-out: IC50 dTT (concentration required to double thrombin time)
From the text: *Concentration of compound required to double thrombin time in buffer

platelets = assay: Thrombin-induced platelet aggregation; format: cell-based
Experimental: The inhibitory activity of some of the peptides of the present invention toward thrombin is reflected by their ability to inhibit thrombin-mediatedplatelet aggregation as shown in FIG. 2. Platelet rich plasma containing variable concentrations of P79 is treated with thrombin. Platelet aggregation, reflected by increased light transmittance is measured on a Bio Data PAP-4 aggregometer.

[5] = test system: platelet deposition on arterial media; assay: Pig angioplasty model, ex vivo platelet deposition on arterial media; format: in vivo
Experimental: The study investigates the dose range required to inhibit platelet deposition on arterial media and aggregation ex vivo in the pig using a bolus and infusion regimen of the compounds of the invention. The study was carried out according to Lam, J. Y. T. et al., Circulation 84:2, August 1991, 814-820. A brief outline of the protocol follows.
Normal 3-4 month old pigs were used. In all pigs, autologous platelets were labeled with 300-400 μCi ^111 In-tropolone 18-24 hours before angioplasty. The pigs were sedated with 300 mg i.m. ketamine. After inhalation of the ether, the pigs were intubated, mechanically ventilated with room air by a respirator and maintained anesthetized with 0.5% halothane. Immediately after catheter insertion, a single bolus of heparin was administered to animals receiving platelet-inhibitor therapy and their matching controls corresponding to a dose less than 3.1 units/kg/min. Heparin was not administered to animals receiving hirudin or their matching controls.
An 8F balloon dilation catheter was advanced under fluoroscopic control through a right femoral cut down into the left and right common carotid arterial segment between the fifth and fourth vertebrae. Five inflations were performed, 30 seconds each at 6 atm with 60 seconds between inflations. The angiographic lumen diameter before dilation ranged from 5 to 6 mm during dilation, the diameter of the inflated balloon within the artery was not more than 10% greater than the original arterial lumen. […]
The platelet deposition on each dilated artery was calculated from the platelet counts and ^111 In activity on the arterial wall and in the blood obtained. The percentage of radioactivity bound to platelets was determined and the number of platelets per counts per minute was calculated from known blood platelet counts. The number of platelets deposited on the arterial segments per square centimeter was calculated by dividing the arterial segment counts per minute by both the number of platelets per counts per minute and the arterial surface area.

thrombin [6] = molecular target: T1, thrombin; assay: Antithrombin activity in vitro, Ki (Table III); format: biochemical; conditions: first test where two are given; means for 3-5 observations
Experimental: The reactions were initiated by addition of the substrate dissolved in 0.1 M Tris-HCl buffer, pH 7.8 to a preincubated solution of enzyme (0.4 or 0.04 nM) and variable concentrations of inhibitor dissolved in the same buffer. Initial velocities were recorded and Ki values were determined graphically by weighted linear regression of Dixon plots in the case of competitive inhibition, or by the method of Baici (Baici, 1981) for hyperbolic inhibition. Fluorogenic assays were conducted using the same conditions and instrument as above operating in the fluorescence mode in the Ratio (λex=383 nm, λem=455 nm). Fluorescence intensities were calibrated with 7-amino-4-methyl coumarin solution of known concentration. The specificity of the synthetic peptides of the present invention for human α-thrombin may also be determined by comparing their relative inhibitory activities towards both human α-thrombin and bovine α-thrombin and trypsin by comparing Ki values obtained in the amidolytic assay of thrombin activity.

Substance: heparin [reference compound]
Dose needed to cause a doubling in patency time [1]: 200 U/kg | Bolus needed to achieve the same increase in APTT [2]: 25 U | Infusion needed to achieve the same increase in APTT [2]: 0.5 U/kg/min | Dose needed to achieve patency [3]: 10-15 U

Substance: Ac(D-Phe)-Pro-Arg-(CH2)4 (CO)--[NH--CH2 --CH=CH--CH2 --(CO)]2 -DFEPIPL-OH (Ac-[dF]PR[(CH2)4CO][NHCH2CH:CHCH2CO][NHCH2CH:CHCH2CO]DFEPIPL-OH; numbers in words are those of the source; also: Arg carbonyl bonded to (CH2)4 (non-amide backbone link)) [P184]
IC50 (human plasma clotting): 52 nM | Dose to double patency time [1]: 1 to 2 mg/kg | IC50 (thrombin [4]): 10.5 nM | IC50 (platelets): 6 nM | Decrease of platelet deposition on arterial media relative to baseline control, mean ([5]; four animals): 61.2% | Platelet deposition after drug infusion, X±SEM ([5]; i.v. bolus 0.2 mg/kg then infusion 0.2 mg/kg/hr, four animals, paired T P=0.0001): 39.8±12.7 % of control | Platelet deposition after drug infusion, single animals ([5]; i.v. bolus 0.2 mg/kg then infusion 0.2 mg/kg/hr, mean of three determinations per animal, animals 1-4, listed as BCH-1710): 31.9 % of control and 23.7 % of control and 3.7 % of control and 84.3 % of control | Ki (thrombin [6]): 1.5 nM | Bolus Dose needed to cause 2-4 fold increase in APTT [2]: 1 mg/kg | Infusion Dose needed to cause 2-4 fold increase in APTT [2]: 125 | Minimum Bolus dose needed to achieve patency [3]: 0.5 to 2 mg/kg

IC50 (human plasma clotting): 30 nM | IC50 (thrombin [4]): 4.9 nM | IC50 (platelets): 10 nM | Ki (thrombin [6]): 0.95 nM
Substance: (D-Phe)-Pro-Arg-(CH2)4 (CO)--[NH(CH2)4 (CO)]2 -DF-(4-thiahomoGlu)-PIPL-TFA salt [BCH-2758]
Dose to double patency time [1]: 4 mg/kg

Substance: Hirulog: comparator thrombin inhibitor, BCH number 1724
Minimum Bolus dose needed to achieve patency [3]: 0.05 to 0.125 mg/kg
